Columns and labels:
Format in all cases: cell-based
Details in all cases: after 10, 20, 40 and 60 minutes at all dilutions 1:100, 1:200, 1:400, 1:800
Escherichia coli = test: Antimicrobial testing by agar dilution, Escherichia coli
Method: (§1) The antimicrobial properties of the ethyl [4,4-bis(4-bromophenyl)-2,5-dioxoimidazolidin-1-yl]acetate was studied by the method of agar dilution. Test solutions of each compound was prepared in concentration of 1% using dimethylformamide as a solvent then they are diluted in physiological solution to obtain the final experimental dilutions 1:100, 1:200, 1:400, 1:800. The effect of these substances are compared with furacillin in a controllable study. The testing microbes used were gram positive bacteria Staphylococcus aureus, gram negative bacteria Escherichia coli, Pseudomonas aeruginosa and Candida albicans fungi were taken. The experiments used for this survey were meat-pentonlu agar (EPA) for cultivation of bacteria and Saburo environment for fungi. Each experiment used 1 ml of test solution on each plate 500 min. Add 2 drops of emulsified with microbes feel. All experimental samples were taken from the agar after 10, 20, 40, 60 minutes in the environment on the basis of Patrk planted. Bacteria were cultivated at a temperature of 37° C. for 1 day and the mushroom was kept in a thermostat for […] at a temperature of 28° C. Then the results were checked.

Candida albicans = test: Antimicrobial testing by agar dilution, Candida albicans
Method: as §1

Pseudomonas aeruginosa = test: Antimicrobial testing by agar dilution, Pseudomonas aeruginosa
Method: as §1

Staphylococcus aureus = test: Antimicrobial testing by agar dilution, Staphylococcus aureus
Method: as §1

Measured: inhibition activity

CCOC(=O)CN1C(=O)NC(c2ccc(Br)cc2)(c2ccc(Br)cc2)C1=O [ethyl [4,4-bis(4-bromophenyl)-2,5-dioxoimidazolidin-1-yl]acetate]
higher inhibition activity: all assays above

— patent US11993575B1, “Ethyl [4,4-bis(4-bromophenyl)-2,5-dioxoimidazolidin-1-yl]acetate as an antimicrobial compound” (KING FAISAL UNIVERSITY, priority 2023, dated 2024)
